Bridge positions count the residues as written; N and C are the ends. Square brackets hold non-standard residues; d marks the D form. Peptide text beside a SMILES is read from it. pS = N[C@@H](COP(=O)(O)O)C(=O)O
Experiments:
[1] = In vitro metabolism in mouse jejunum loop fluid; assay type: in vitro ADME; conditions: for metabolism in control reaction: 120 minute incubation; for degradation rate compared with peptide 2: mouse intestinal fluid
Method: The purpose of this study was to determine the stability of phosphorylated peptides in mouse jejunal loop fluid. […] The isotopically labeled peptide 2 was synthesized with ^13C, ^15N-labeled alanine and leucine (i.e., with a sequence CCpS[^13C6, ^15N]LCCNP[^13C6, ^15N]ACTGC).
Each peptide was synthesized by American Peptide Company, Inc., and was stored desiccated at −20° C. A 1 mg/mL solution for each of the non-labeled peptides was prepared in 1 M tris(hydroxymethyl)aminomethane hydrochloride (Tris-HCl), pH 8 just prior to conducting the mouse intestinal loop fluid assay. A 500 ng/mL solution of ^13C, ^15N-labeled peptide 2 was prepared in 0.1% formic acid in water and was utilized to dilute the jejunum samples for post-assay LC-MS/MS analysis.
To collect the fluid, mice were fasted overnight with full access to water. They were then anesthetized with isofluorane for surgery and subjected to laparotomy in which the small intestine was exteriorized. Jejunum loops of 3 to 4 cm in length were made with sutures starting at 7 cm from the pyloric sphincter of the stomach. Once the loops were formed, they were injected with 200 μL of phosphate buffered saline (PBS) buffer (10 mM, pH 7.4). The abdominal wall and skin of the animals were then sutured, and the animals were allowed to recover for 30 minutes. Following recovery, the animals were sacrificed, the loops were then excised and the fluid inside was recovered and stored at −80° C. until use.
For each peptide, 25 μL of the 1 mg/mL peptide stock solution was added to 25 μL of 1 M Tris-HCl and 25 μL of 10× calf intestinal phosphatase (CIP) buffer containing 500 mM Tris-HCl, 1 M sodium chloride (NaCl), 0.1 mM magnesium chloride (MgCl2), pH 8. The reactions were initiated by adding 175 μL of the mouse jejunum loop fluid or 175 μL of the 1 M Tris-HCl pH8 buffer for the control reactions. The final concentration of each peptide was 100 μg/mL. The reactions were continuously mixed and maintained at 37° C. on a plate shaker. At 0, 2, 5, 10, 20, 30, 60, 90 and 120 minutes after adding the mouse intestinal loop fluid, a 25 μL aliquot was taken and added to 25 μL of 4° C. 12% trichloroacetic acid to stop the reaction. An additional 200 μL of 0.1% formic acid in water was added to these reactions for dilution purposes. These samples were then further diluted by taking 20 μL of each sample and adding it to 480 μL of 0.1% formic acid in water containing 500 ng/mL of the internal standard 13C, 15N-labeled peptide 2.
All samples were analyzed using an Applied Biosystems/MDS SCIEX API 4000 triple quadrupole mass spectrometer equipped with a high-performance liquid chromatography (HPLC) system. The mass spectrometer was operated in multiple reaction monitoring (MRM) mode, with resolution set to 1.2 Da.
The LC-MS/MS data were processed using Analyst version 1.4.2 software (Applied Biosystems/MDS SCIEX). The peak area ratio (ratio of analyte peak area to internal standard peak area) was used to calculate the percent remaining of each peptide.

[2] = biological target: T1, Calf intestinal alkaline phosphatase (CIP) (Bos taurus, UniProt P19111); assay: Alkaline phosphatase reaction (dephosphorylation of peptide substrates); assay type: in vitro ADME; conditions: with and without calf intestinal alkaline phosphatase; data not shown
T1 construct: purchased New England BioLabs, Ipswich, Mass; MO290S
Method: For the alkaline phosphatase reactions, peptide stocks were prepared at 1 mg/mL in 0.1 M Tris-HCl pH 8, which were stored at −20° C. until assays were conducted. For the acid phosphatase reactions, peptide stocks were prepared at 1 mg/mL in 50 mM sodium phosphate pH 6, which was stored at −20° C. until assays were conducted.
Calf intestinal alkaline phosphatase (CIP) was obtained from New England BioLabs, Ipswich, Mass. Cat # MO290S. The CIP reaction solution was prepared by dilution with buffer (50 mM KCl, 10 mM Tris-HCl pH 8, 1 mM MgCl2, 50% glycerol) to 0.5 units/μL. The alkaline phosphatase reaction solutions were assembled in 20 μL quantities containing:
2 μL 10×CIP buffer (1M NaCl, 500 mM Tris-HCl pH 8, 100 mM MgCl2)
2 μL peptide stock (1 mg/mL)
4 μL alkaline phosphatase (0, 0.5 or 2 units)
The reaction solutions were mixed gently and incubated for 90 minutes at 37° C. These reaction solutions were stored at −20° C. until analysis. For analysis, the reaction solutions were diluted from 7.5 μL of CIP treated peptide to 50 μL with 0.1% formic acid in water to a final concentration of 10 μM.
Control reactions were assembled for enzyme activity containing 10 mM p-nitrophenylphosphate in place of peptide. After incubation, the reactions were diluted with 0.1 mL of 100 mM borate buffer pH 9 and read at the absorbance of 405 nm to monitor p-nitrophenol appearance.

GC-C = biological target: T2, GC-C (Homo sapiens, UniProt P25092); assay: cGMP accumulation in T84 cells for analysis of GC-C activity; assay type: cell-based
T2 construct: endogenous in cells; host or cells: T84 cells
Method: For the cGMP assay, 4.5×10^5 cells/mL of T84 cells were grown overnight in 24 well tissue culture plates. […] After the second wash, the cells were incubated with 450 μL of 1 mM isobutylmethylxanthine (IBMX) in either the pH 5 or pH 8 buffers for 10 minutes at 37° C. to inhibit any phosphodiesterase activity. The peptides were then diluted in either pH 5 or pH 8 buffer to a 10× concentration. The peptide solution of 50 μL was diluted to a final volume of 500 μL with the T84 cells, bringing each peptide concentration to 1×. An eleven point curve analysis was conducted for each peptide, with final peptide concentrations tested in each assay, in nM: 10000, 3000, 1000, 300, 100, 30, 10, 3, 1, 0.3, 0.1.
There was no peptide control used to determine endogenous levels of cGMP. Peptides were incubated for 30 minutes at 37° C. After 30 minutes, the supernatants were removed and the cells were lysed with 0.1 M HCl. The cells were lysed for 30 minutes on ice. After 30 minutes, lysates were pipetted off and placed into a 96 well HPLC plate and spun at 10,000×g for 10 minutes to remove any cell debris. […]
cGMP concentrations were determined from each sample using the LC/MS conditions in Table 4 and a calculated standard curve. EC50 values were calculated from concentration-response curves generated with GraphPad Prism Software. […]

[3] = oral administration at therapeutic dose levels; cited from earlier work
[4] = control reaction (1 M Tris-HCl) at 37° C.

T1 sequence (P19111 20-506): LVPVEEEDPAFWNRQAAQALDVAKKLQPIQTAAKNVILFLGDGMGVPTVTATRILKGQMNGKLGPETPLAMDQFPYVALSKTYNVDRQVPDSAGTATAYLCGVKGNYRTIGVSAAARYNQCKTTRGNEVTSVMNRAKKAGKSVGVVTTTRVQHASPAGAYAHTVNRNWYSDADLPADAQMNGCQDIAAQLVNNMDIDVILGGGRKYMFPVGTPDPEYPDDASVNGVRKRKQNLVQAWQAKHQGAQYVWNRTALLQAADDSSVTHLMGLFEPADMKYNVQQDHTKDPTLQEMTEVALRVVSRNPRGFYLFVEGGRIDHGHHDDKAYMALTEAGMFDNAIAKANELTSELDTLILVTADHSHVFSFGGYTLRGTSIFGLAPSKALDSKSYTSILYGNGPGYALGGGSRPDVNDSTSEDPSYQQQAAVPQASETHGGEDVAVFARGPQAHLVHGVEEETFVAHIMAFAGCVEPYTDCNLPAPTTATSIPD
T2 sequence (P25092 24-1073): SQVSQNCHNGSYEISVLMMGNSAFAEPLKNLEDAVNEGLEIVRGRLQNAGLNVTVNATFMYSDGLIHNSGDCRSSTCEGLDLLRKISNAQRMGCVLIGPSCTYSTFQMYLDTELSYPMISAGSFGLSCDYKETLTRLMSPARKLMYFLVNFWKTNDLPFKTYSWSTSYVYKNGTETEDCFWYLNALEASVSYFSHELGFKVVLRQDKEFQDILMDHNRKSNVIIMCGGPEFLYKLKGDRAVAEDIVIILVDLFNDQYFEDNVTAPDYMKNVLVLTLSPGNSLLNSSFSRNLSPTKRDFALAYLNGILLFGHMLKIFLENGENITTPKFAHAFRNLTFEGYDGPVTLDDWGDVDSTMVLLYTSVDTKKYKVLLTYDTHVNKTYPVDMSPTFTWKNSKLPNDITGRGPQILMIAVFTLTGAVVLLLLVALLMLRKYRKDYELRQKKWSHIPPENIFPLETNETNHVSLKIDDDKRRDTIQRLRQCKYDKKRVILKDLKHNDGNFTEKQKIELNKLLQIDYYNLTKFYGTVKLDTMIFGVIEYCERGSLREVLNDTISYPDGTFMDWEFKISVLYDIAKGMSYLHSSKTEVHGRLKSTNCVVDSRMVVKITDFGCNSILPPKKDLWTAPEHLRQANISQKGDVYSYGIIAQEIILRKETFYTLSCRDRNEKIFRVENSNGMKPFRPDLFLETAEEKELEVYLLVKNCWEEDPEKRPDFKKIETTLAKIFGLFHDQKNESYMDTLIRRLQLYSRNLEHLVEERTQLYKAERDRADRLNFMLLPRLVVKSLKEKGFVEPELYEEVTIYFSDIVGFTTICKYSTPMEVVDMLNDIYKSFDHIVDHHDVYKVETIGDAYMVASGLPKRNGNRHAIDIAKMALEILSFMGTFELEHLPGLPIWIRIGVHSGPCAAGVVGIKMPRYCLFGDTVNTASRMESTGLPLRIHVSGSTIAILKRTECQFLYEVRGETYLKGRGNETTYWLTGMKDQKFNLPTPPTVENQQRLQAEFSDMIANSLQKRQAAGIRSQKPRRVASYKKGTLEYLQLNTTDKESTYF

Row | SMILES | metabolism in control reaction [1, 4] | degradation rate compared with peptide 2 [1] | further results
1 | CC(C)C[C@@H]1NC(=O)[C@H](CO)NC(=O)[C@@H]2CSSC[C@@H]3NC(=O)[C@H](C)NC(=O)[C@@H]4CCCN4C(=O)[C@H](CC(N)=O)NC(=O)[C@H](CSSC[C@H](N)C(=O)N2)NC(=O)[C@H](CSSC[C@@H](C(=O)O)NC(=O)CNC(=O)[C@H]([C@@H](C)O)NC3=O)NC1=O [Dephospho-Peptide 2, CCSLCCNPACTGC] (H-CCSLCCNPACTGC-OH; disulfide 1-6, 2-10, 5-13 (inferred); N-terminus and C-terminus assumed) | not metabolized | degraded faster | –
2 | CC(C)C[C@@H]1NC(=O)[C@H](COP(=O)(O)O)NC(=O)[C@@H]2CSSC[C@@H]3NC(=O)[C@H](C)NC(=O)[C@@H]4CCCN4C(=O)[C@H](CC(N)=O)NC(=O)[C@H](CSSC[C@H](N)C(=O)N2)NC(=O)[C@H](CSSC[C@@H](C(=O)O)NC(=O)CNC(=O)[C@H]([C@@H](C)O)NC3=O)NC1=O [Peptide 2, CCpSLCCNPACTGC] (H-CC[pS]LCCNPACTGC-OH; disulfide 1-6, 2-10, 5-13 (inferred); N-terminus and C-terminus assumed) | not metabolized | – | formation of metabolite dephospho-peptide 2 in control reaction [1, 4]: no dephospho-peptide 2 was formed
3 | CC(C)C[C@@H]1NC(=O)[C@H](CCC(=O)O)NC(=O)[C@@H]2CSSC[C@@H]3NC(=O)[C@H](C)NC(=O)[C@@H]4CCCN4C(=O)[C@H](CC(N)=O)NC(=O)[C@H](CSSC[C@H](N)C(=O)N2)NC(=O)[C@H](CSSC[C@@H](C(=O)N[C@@H](Cc2ccc(O)cc2)C(=O)O)NC(=O)CNC(=O)[C@H]([C@@H](C)O)NC3=O)NC1=O [Peptide 3, CCELCCNPACTGCY] (H-CCELCCNPACTGCY-OH; disulfide 1-6, 2-10, 5-13 (inferred); N-terminus and C-terminus assumed) | not metabolized | degraded faster | effect of CIP treatment (LC-MS) [2]: not affected; detection of peptide in mouse jejunum fluid ([1]; after 90 minutes, 37° C., 100 μg/mL): not detected
4 | CC(C)C[C@@H]1NC(=O)[C@H](COP(=O)(O)O)NC(=O)[C@@H]2CSSC[C@@H]3NC(=O)[C@H](C)NC(=O)[C@@H]4CCCN4C(=O)[C@H](CC(N)=O)NC(=O)[C@H](CSSC[C@H](NC(=O)[C@H](CC(=O)O)NC(=O)[C@@H](N)CC(=O)O)C(=O)N2)NC(=O)[C@H](CSSC[C@@H](C(=O)N[C@@H](Cc2ccc(O)cc2)C(=O)O)NC(=O)CNC(=O)[C@H]([C@@H](C)O)NC3=O)NC1=O [Peptide 5, DDCCpSLCCNPACTGCY] (H-DDCC[pS]LCCNPACTGCY-OH; disulfide 3-8, 4-12, 7-15 (inferred); N-terminus and C-terminus assumed) | – | – | EC50 (GC-C): 0.0147 µM
5 | C[C@@H]1NC(=O)[C@@H]2CCCN2C(=O)[C@H](CC(N)=O)NC(=O)[C@@H]2CSSC[C@H](N)C(=O)N[C@H]3CSSC[C@H](NC1=O)C(=O)N[C@@H]([C@@H](C)O)C(=O)NCC(=O)N[C@H](C(=O)N[C@@H](Cc1ccc(O)cc1)C(=O)O)CSSC[C@H](NC(=O)[C@H](Cc1ccc(O)cc1)NC(=O)[C@H](CCC(=O)O)NC3=O)C(=O)N2 [linaclotide, Linaclotide] (H-CCEYCCNPACTGCY-OH; disulfide 1-6, 2-10, 5-13) | – | – | systemic levels after oral administration [3]: no detectable levels

— patent publication US9650417B2, “Treatments for gastrointestinal disorders” (Ironwood Pharmaceuticals, Inc., priority 2011, dated 2017)
